Reference: ChEMBL document CHEMBL1914428, “Investigating the role of the hydroxyl groups of substrate erythrose 4-phosphate in the reaction catalysed by the first enzyme of the shikimate pathway” (Bioorg Med Chem Lett, 2011)
Activity calls are given as the source filed them. No cut-off for these calls is given here.

What was measured:
[1] = test system: Pyrococcus furiosus; experiment: Inhibition of Pyrococccus furiosus DAH7P synthase type 1beta
[2] = test system: Escherichia coli; experiment: Activity of Escherichia coli phenylalanine-sensitive DAH7P synthase type 1alpha by spectrophotometry in the presence of Mn2+
[3] = test system: Pyrococcus furiosus; experiment: Activity of Pyrococccus furiosus DAH7P synthase type 1beta by spectrophotometry in the presence of Mn2+
[4] = test system: Escherichia coli; experiment: Ratio of Kcat to Km of Escherichia coli phenylalanine-sensitive DAH7P synthase type 1alpha
[5] = test system: Mycobacterium tuberculosis; experiment: Ratio of Kcat to Km of Mycobacterium tuberculosis DAH7P synthase type 2
[6] = test system: Mycobacterium tuberculosis; experiment: Activity of Mycobacterium tuberculosis DAH7P synthase type 2 by spectrophotometry in the presence of Mn2+
[7] = test system: Pyrococcus furiosus; experiment: Ratio of Kcat to Km of Pyrococccus furiosus DAH7P synthase type 1beta

| Structure (SMILES) | inhibition [1] | Km [2] | Km [3] | kcat [3] | kcat/Km [4] | kcat [2] | kcat/Km [5] | Km [6] | kcat [6] | kcat/Km [7] |
| --- | --- | --- | --- | --- | --- | --- | --- | --- | --- | --- |
| O=CC(O)CCOP(=O)(O)O (racemic) | Active | 2600 µM | – | – | – | – | – | – | – | – |
| O=C[C@H](O)[C@H](O)COP(=O)(O)O | – | 39 µM | 9 µM | 1.4 s⁻¹ | 670000 M⁻¹ s⁻¹ | 26 s⁻¹ | 150000 M⁻¹ s⁻¹ | 37 µM | 5.4 s⁻¹ | 160000 M⁻¹ s⁻¹ |
| O=CC[C@H](O)COP(=O)(O)O | – | 410 µM | 6 µM | 3 s⁻¹ | 60000 M⁻¹ s⁻¹ | 25 s⁻¹ | 110000 M⁻¹ s⁻¹ | 46 µM | 4.9 s⁻¹ | 500000 M⁻¹ s⁻¹ |
| O=C[C@H](O)CCOP(=O)(O)O | – | 2700 µM | 200 µM | 2.1 s⁻¹ | 2000 M⁻¹ s⁻¹ | 4.5 s⁻¹ | 31000 M⁻¹ s⁻¹ | 77 µM | 2.4 s⁻¹ | 11000 M⁻¹ s⁻¹ |
